From PubChem BioAssay (NCI)
Values joined by “and” are separate entries in the source; they are usually repeats but may differ in a detail not shown here. Equal values may be shown once.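 Interpolation was linear, between the two tested concentrations surrounding the appropriate level; five concentrations were tested over 48 hours in 96-well plates. GI50 = concentration required for 50% inhibition of growth. TGI marks complete inhibition of growth.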

How the values were obtained:
Experiment in all cases: growth of human tumour cells (NCI), 48 h
NCI-H23 lung = system: NCI-H23 lung
NCI-H460 lung = system: NCI-H460 lung
T-47D breast = system: T-47D breast
HL-60(TB) leukemia = system: HL-60(TB) leukemia
HT29 colon = system: HT29 colon
HCT-116 colon = system: HCT-116 colon
LOX IMVI melanoma = system: LOX IMVI melanoma
MALME-3M melanoma = system: MALME-3M melanoma
A549 NSCLC = system: A549 NSCLC
SK-MEL-5 melanoma = system: SK-MEL-5 melanoma

CCCCCCCCCCCCCCCCCCOc1ccccc1CC(=O)OCC[N+](CC)(CC)CC
GI50 (NCI-H23 lung): 1.16 µM
TGI (NCI-H23 lung): 4.09 µM
GI50 (NCI-H460 lung): 1.73 µM
TGI (NCI-H460 lung): 6.34 µM
GI50 (T-47D breast): 1.48 µM
TGI (T-47D breast): 8.16 µM
GI50 (HL-60(TB) leukemia): 0.926 µM
TGI (HL-60(TB) leukemia): 2.78 µM
GI50 (HT29 colon): 1.63 µM
TGI (HT29 colon): 8.58 µM
GI50 (HCT-116 colon): 1.61 µM
TGI (HCT-116 colon): 7.76 µM
GI50 (LOX IMVI melanoma): 0.881 µM
TGI (LOX IMVI melanoma): 1.66 µM
GI50 (MALME-3M melanoma): 1.31 µM
TGI (MALME-3M melanoma): 3.77 µM
GI50 (A549 NSCLC): 1.44 µM
TGI (A549 NSCLC): 7.42 µM
GI50 (SK-MEL-5 melanoma): 0.942 µM
TGI (SK-MEL-5 melanoma): 1.75 µM

COc1cccc(C2=C(c3cn(C)c4cc(F)ccc34)C(=O)NC2=O)c1
GI50 (NCI-H23 lung): > 25 µM
TGI (NCI-H23 lung): > 25 µM
GI50 (NCI-H460 lung): > 18.6 µM
TGI (NCI-H460 lung): > 25 µM
GI50 (T-47D breast): 15.3 µM
TGI (T-47D breast): > 25 µM
GI50 (HL-60(TB) leukemia): 13.6 µM
TGI (HL-60(TB) leukemia): > 25 µM
GI50 (HT29 colon): 8.35 µM
TGI (HT29 colon): > 25 µM
GI50 (HCT-116 colon): 8.59 µM
TGI (HCT-116 colon): > 25 µM
GI50 (LOX IMVI melanoma): 17.1 µM
TGI (LOX IMVI melanoma): > 25 µM
GI50 (MALME-3M melanoma): > 18 µM
TGI (MALME-3M melanoma): > 25 µM
GI50 (A549 NSCLC): > 17.4 µM
TGI (A549 NSCLC): > 25 µM
GI50 (SK-MEL-5 melanoma): 11 µM
TGI (SK-MEL-5 melanoma): > 21 µM

COc1ccc(C(=O)O[C@H]2[C@H](O[C@H]3[C@@H](O)COC(O[C@H]4C[C@H]5[C@@H]6CC=C7C[C@@H](O)CC[C@]7(C)[C@H]6CC[C@]5(C)[C@H]4[C@H](C)C(=O)CCC(C)C)[C@@H]3OC(C)=O)OC[C@@H](O)[C@@H]2O)c(C)c1 (stereo not given in full)
GI50 (NCI-H23 lung): 0.0574 µM
TGI (NCI-H23 lung): 15.4 µM
GI50 (NCI-H460 lung): < 0.01 µM
TGI (NCI-H460 lung): 3.23 µM
GI50 (T-47D breast): 0.0133 µM
TGI (T-47D breast): 19.1 µM
GI50 (HL-60(TB) leukemia): 0.0133 µM
TGI (HL-60(TB) leukemia): 28.2 µM
GI50 (HT29 colon): 0.0712 µM
TGI (HT29 colon): 21.6 µM
GI50 (HCT-116 colon): < 0.01 µM
TGI (HCT-116 colon): 15.8 µM
GI50 (LOX IMVI melanoma): < 0.01 µM
TGI (LOX IMVI melanoma): 0.0173 µM
GI50 (MALME-3M melanoma): 0.0127 µM
TGI (MALME-3M melanoma): 11.6 µM
GI50 (A549 NSCLC): < 0.01 µM
TGI (A549 NSCLC): > 100 µM
GI50 (SK-MEL-5 melanoma): < 0.01 µM
TGI (SK-MEL-5 melanoma): 0.0141 µM

CCOC(=O)/C(C#N)=C1\SS/C(=C(/C#N)C(=O)OCC)S1
GI50 (NCI-H23 lung): 23.5 µM
TGI (NCI-H23 lung): 61.2 µM
GI50 (NCI-H460 lung): 32 µM
TGI (NCI-H460 lung): > 100 µM
GI50 (T-47D breast): 17.9 µM
TGI (T-47D breast): 48.2 µM
GI50 (HL-60(TB) leukemia): 22.6 µM
TGI (HL-60(TB) leukemia): 63 µM
GI50 (HT29 colon): 3.92 µM
TGI (HT29 colon): 22.3 µM
GI50 (HCT-116 colon): 14.2 µM
TGI (HCT-116 colon): 33.5 µM
GI50 (LOX IMVI melanoma): 13.9 µM
TGI (LOX IMVI melanoma): 57.4 µM
GI50 (MALME-3M melanoma): 11.6 µM
TGI (MALME-3M melanoma): 27.4 µM
GI50 (A549 NSCLC): 40 µM
TGI (A549 NSCLC): > 100 µM
GI50 (SK-MEL-5 melanoma): 32 µM
TGI (SK-MEL-5 melanoma): > 100 µM

COC1=C(OC)C(=O)C(Sc2ccc3ccccc3c2)=CC1=O
TGI (NCI-H23 lung): 33.1 µM
TGI (NCI-H460 lung): 43.4 µM
TGI (T-47D breast): 35.8 µM
TGI (HL-60(TB) leukemia): 3.35 µM
TGI (HT29 colon): 37.8 µM
TGI (HCT-116 colon): 25.9 µM
TGI (LOX IMVI melanoma): 30.6 µM
TGI (MALME-3M melanoma): 28.4 µM
TGI (A549 NSCLC): 32.3 µM
TGI (SK-MEL-5 melanoma): 13.9 µM

CC(C)(C)NC(=O)[C@H]1CC[C@H]2[C@@H]3CC[C@H]4NC(=O)C=C[C@]4(C)[C@H]3CC[C@]12C
GI50 (NCI-H23 lung): > 100 µM
TGI (NCI-H23 lung): > 100 µM
GI50 (NCI-H460 lung): > 100 µM
TGI (NCI-H460 lung): > 100 µM
GI50 (T-47D breast): > 100 µM and 67.2 µM
TGI (T-47D breast): > 100 µM
GI50 (HL-60(TB) leukemia): 41.6 µM and > 100 µM
TGI (HL-60(TB) leukemia): > 100 µM
GI50 (HT29 colon): 44.9 µM and 69.6 µM
TGI (HT29 colon): > 100 µM
GI50 (HCT-116 colon): > 100 µM
TGI (HCT-116 colon): > 100 µM
GI50 (LOX IMVI melanoma): > 100 µM
TGI (LOX IMVI melanoma): > 100 µM
GI50 (MALME-3M melanoma): 74.5 µM and > 100 µM
TGI (MALME-3M melanoma): > 100 µM
GI50 (A549 NSCLC): > 100 µM
TGI (A549 NSCLC): > 100 µM
GI50 (SK-MEL-5 melanoma): 43.1 µM and > 100 µM
TGI (SK-MEL-5 melanoma): > 100 µM

N#Cc1ccccc1C#C/C=C\C#CC#C/C=C\C#Cc1ccccc1C#N
GI50 (NCI-H23 lung): 3.14 µM
TGI (NCI-H23 lung): 19.7 µM
GI50 (NCI-H460 lung): 41.3 µM
TGI (NCI-H460 lung): > 100 µM
GI50 (T-47D breast): 10.3 µM
TGI (T-47D breast): 46.5 µM
GI50 (HL-60(TB) leukemia): 4.12 µM
TGI (HL-60(TB) leukemia): 22.5 µM
GI50 (HT29 colon): 3.39 µM
TGI (HT29 colon): 94.4 µM
GI50 (HCT-116 colon): 13.6 µM
TGI (HCT-116 colon): 30.2 µM
GI50 (LOX IMVI melanoma): 17.3 µM
TGI (LOX IMVI melanoma): 45 µM
GI50 (MALME-3M melanoma): 14.6 µM
TGI (MALME-3M melanoma): 29.8 µM
GI50 (A549 NSCLC): 11 µM
TGI (A549 NSCLC): > 100 µM
GI50 (SK-MEL-5 melanoma): 10.4 µM
TGI (SK-MEL-5 melanoma): 27.9 µM

O=C(Nc1cccc(-n2cc(-c3ccncc3)c(-c3ccc(O)c(Cl)c3)n2)c1)c1cc(C(F)(F)F)cc(C(F)(F)F)c1
GI50 (NCI-H23 lung): 5.15 µM
TGI (NCI-H23 lung): > 50 µM
GI50 (NCI-H460 lung): 1.9 µM
TGI (NCI-H460 lung): > 50 µM
GI50 (T-47D breast): 2.28 µM
TGI (T-47D breast): 30.8 µM
GI50 (HL-60(TB) leukemia): 9.4 µM
TGI (HL-60(TB) leukemia): 27.4 µM
GI50 (HT29 colon): 5.15 µM
TGI (HT29 colon): 31.4 µM
GI50 (HCT-116 colon): 2.88 µM
TGI (HCT-116 colon): > 50 µM
GI50 (LOX IMVI melanoma): 1.86 µM
TGI (LOX IMVI melanoma): > 50 µM
GI50 (MALME-3M melanoma): 9.79 µM
TGI (MALME-3M melanoma): 41.9 µM
GI50 (A549 NSCLC): 2.41 µM
TGI (A549 NSCLC): > 50 µM
GI50 (SK-MEL-5 melanoma): 4.61 µM
TGI (SK-MEL-5 melanoma): 16.9 µM

CC(c1ccccc1)[C@@H](C(=O)Nc1ccc(I)cc1F)N1C(=O)N[C@H](c2ccc(OC[C@H](O)CO)cc2)C1=O (stereo not given in full)
GI50 (NCI-H23 lung): 0.902 µM
TGI (NCI-H23 lung): > 25 µM
GI50 (NCI-H460 lung): > 14.6 µM
TGI (NCI-H460 lung): > 25 µM
GI50 (T-47D breast): 10.2 µM
TGI (T-47D breast): > 25 µM
GI50 (HL-60(TB) leukemia): 0.313 µM
TGI (HL-60(TB) leukemia): > 25 µM
GI50 (HT29 colon): 0.0683 µM
TGI (HT29 colon): > 25 µM
GI50 (HCT-116 colon): 1.12 µM
TGI (HCT-116 colon): > 25 µM
GI50 (LOX IMVI melanoma): 2.5 µM
TGI (LOX IMVI melanoma): > 25 µM
GI50 (MALME-3M melanoma): 0.0025 µM
TGI (MALME-3M melanoma): 0.0856 µM
GI50 (A549 NSCLC): > 14.3 µM
TGI (A549 NSCLC): > 25 µM
GI50 (SK-MEL-5 melanoma): 0.85 µM
TGI (SK-MEL-5 melanoma): > 25 µM

Nc1nnnc2nc[nH]c12
GI50 (NCI-H23 lung): 3.19 µM
TGI (NCI-H23 lung): 40.9 µM
GI50 (NCI-H460 lung): 2.46 µM
TGI (NCI-H460 lung): > 100 µM
GI50 (T-47D breast): 0.297 µM
TGI (T-47D breast): 2.55 µM
GI50 (HL-60(TB) leukemia): 1.92 µM
TGI (HL-60(TB) leukemia): > 100 µM
GI50 (HT29 colon): 3.79 µM
TGI (HT29 colon): > 100 µM
GI50 (HCT-116 colon): 0.639 µM
TGI (HCT-116 colon): > 100 µM
GI50 (LOX IMVI melanoma): 0.455 µM
TGI (LOX IMVI melanoma): > 25.8 µM
GI50 (MALME-3M melanoma): 0.759 µM
TGI (MALME-3M melanoma): 7.06 µM
GI50 (A549 NSCLC): 6.42 µM
TGI (A549 NSCLC): > 100 µM
GI50 (SK-MEL-5 melanoma): 2.02 µM
TGI (SK-MEL-5 melanoma): 8.22 µM

CCN(CC)c1ccc2nc3c4ccccc4c(=O)cc-3n(-c3ccccc3)c2c1
GI50 (NCI-H23 lung): 2.18 µM
TGI (NCI-H23 lung): 9.09 µM
GI50 (NCI-H460 lung): 2.26 µM
TGI (NCI-H460 lung): 6.46 µM
GI50 (T-47D breast): 0.194 µM
TGI (T-47D breast): 0.87 µM
GI50 (HL-60(TB) leukemia): 0.273 µM
TGI (HL-60(TB) leukemia): 0.821 µM
GI50 (HT29 colon): 0.902 µM
TGI (HT29 colon): 8.42 µM
GI50 (HCT-116 colon): 1.35 µM
TGI (HCT-116 colon): 3.27 µM
GI50 (LOX IMVI melanoma): 1.62 µM
TGI (LOX IMVI melanoma): 3.72 µM
GI50 (MALME-3M melanoma): 1.4 µM
TGI (MALME-3M melanoma): 3.56 µM
GI50 (A549 NSCLC): 1.45 µM
TGI (A549 NSCLC): 3.96 µM
GI50 (SK-MEL-5 melanoma): 0.444 µM
TGI (SK-MEL-5 melanoma): 1.74 µM
